Measurements reported in patent publication US10301284B2, “Therapeutic inhibitory compounds” (LifeSci Pharmaceuticals, Inc., priority 2016, dated 2019).

Key:
human Plasma Kallikrein [1] = target: T1, human Plasma Kallikrein (Homo sapiens (Human), UniProt P03952); experiment: In vitro enzyme inhibition of human plasma kallikrein (Pro-Phe-Arg-AMC cleavage); assay type: biochemical; conditions: human plasma kallikrein, PFR-AMC substrate, 37° C.; read-out: hPK IC50
Procedure: (§1) The ability of the compounds disclosed herein to inhibit human plasma kallikrein activity was quantified according to the procedures below.
A 10 mM solution of the test compound was made in DMSO. This solution was serially diluted 1:5 in DMSO to yield 2000, 400, 80, 16, 3.2, 0.64, 0.128, 0.0256 and 0.00512 μM compound test solutions. A control tube containing only DMSO is included. 16 μL of each compound test solution was combined with 384 μL of assay buffer (50 mM Tris-HCl pH 7.5, 150 mM NaCl, 0.01% Triton X-100) to yield a “4× test compound buffer stock”.
Separately, a 40 nM solution of human Plasma Kallikrein (Abcam) and a 93.6 μM solution Pro-Phe-Arg-AMC (Bachem) were made using assay buffer. These solutions are hereby referred to as 4×hPK and 2×PFR-AMC, respectively.
60 μL of each 4× test compound buffer stock was combined with 60 μL of 4×hPK to yield 120 μL of “2× test compound buffer stock/2×hPK”. 50 μL was removed from this mixture and placed into duplicate wells on a Microfluor 1Black U-bottom microtiter plate (Thermo Scientific). This plate was incubated for 5 minutes at 37° C. To each well, 50 μL of pre-warmed 2×PFR-AMC was added to start the enzymatic reaction. Cleavage of PFR-AMC was monitored in a Biotek Synergy H4 reader set at 37° C. Readings are taken every 43 seconds for 1 hour. The highest mean velocity over 20 reads (˜15 minutes) is used to calculate the IC50. The IC50 is calculated using the Gen5 (Biotek Instruments).
The ability of the compounds listed in Table 2 to inhibit human plasma kallikrein activity was determined.

human Plasma Kallikrein [2] = target: T1, human Plasma Kallikrein; experiment: Human whole blood kallikrein inhibition (ellagic acid-activated human plasma, Z-FR-2-AMC substrate); assay type: biochemical; conditions: human plasma activated with ellagic acid, Z-FR-2-AMC 40 μM, 37° C.; read-out: HWB EC50
Procedure: as §1
All dilutions were prepared in an assay buffer comprising 50 mM Tris-HCl pH 7.2, 150 mM NaCl, and 0.01% Triton X-100.
Human plasma was thawed on ice and centrifuged for 15 min at 4° C. to remove platelets. A 1 mM stock solution of ellagic acid was diluted to 8 μM and mixed with human plasma, after removing platelets, at a ratio of 1:0.8. The mixture of human plasma and ellagic acid was further diluted 32-fold in the assay buffer, to yield the final mixture for use in the inhibition assay.
A 22.5 μL volume of the final mixture of human plasma and ellagic acid was added to a 96-well microwell plate and the plate was incubated for 15 min at 37° C.
The test compound solution was prepared to provide final concentrations of 20 μM, 5 μM, 1.25 μM, 312.5 nM, 78.125 nM, 19.531 nM, 4.883 nM, 1.221 nM, 0.305 nM, and 0.076 nM. Each test compound concentration was tested in duplicates.
In addition to the inhibitor control and test wells, the 96 well assay plate included positive control wells which contain the mixture of human plasma and ellagic acid without test compounds, and background wells which contain neither the mixture of human plasma and ellagic acid nor the test compounds. The total volume of liquid in positive control and background wells was brought up to 35 μL using the assay buffer.
The assay plate containing test compounds mixed with human plasma and ellagic acid and appropriate controls was incubated at 37° C. for 5 min. A 10 mM stock solution of substrate Z-FR-2-AMC was diluted to 133.2 μM in the assay buffer, and 15 μL of the diluted substrate was added to each well, to yield a final substrate concentration of 40 μM in each well. The reagents were mixed by shaking the plate gently for 30 sec.
The enzyme reaction was quantified by immediate kinetic reading of the assay plate using excitation/emission wavelengths of 330 nm/440 nm respectively. Fluorescence intensity was recorded for 60 min, using a time interval of 43 sec.
The inhibition activity of the test compounds were evaluated using the IC50 values, calculated according to the dose-response curve of the test compounds, fitted using the “log(inhibitor)−response(variable slope)” equation in GraphPadPrism software (GraphPad Software, Inc.).
The percentage inhibition (EC50) was calculated using the following equation:
[formula] where, Mean(BG) is the average value of the fluorescence intensity of the background wells and Mean(PC) is the average value of the fluorescence intensity of the positive control wells.

T1 sequence (P03952 391-638 limits assumed): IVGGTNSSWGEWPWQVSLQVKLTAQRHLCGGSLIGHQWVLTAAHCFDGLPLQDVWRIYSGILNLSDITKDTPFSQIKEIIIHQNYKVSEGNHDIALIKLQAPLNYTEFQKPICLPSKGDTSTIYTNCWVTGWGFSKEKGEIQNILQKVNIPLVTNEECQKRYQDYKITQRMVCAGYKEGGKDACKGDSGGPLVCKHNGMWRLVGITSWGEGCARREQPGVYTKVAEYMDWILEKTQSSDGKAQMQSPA
T1 sequence (P03952 20-390 partner limits assumed): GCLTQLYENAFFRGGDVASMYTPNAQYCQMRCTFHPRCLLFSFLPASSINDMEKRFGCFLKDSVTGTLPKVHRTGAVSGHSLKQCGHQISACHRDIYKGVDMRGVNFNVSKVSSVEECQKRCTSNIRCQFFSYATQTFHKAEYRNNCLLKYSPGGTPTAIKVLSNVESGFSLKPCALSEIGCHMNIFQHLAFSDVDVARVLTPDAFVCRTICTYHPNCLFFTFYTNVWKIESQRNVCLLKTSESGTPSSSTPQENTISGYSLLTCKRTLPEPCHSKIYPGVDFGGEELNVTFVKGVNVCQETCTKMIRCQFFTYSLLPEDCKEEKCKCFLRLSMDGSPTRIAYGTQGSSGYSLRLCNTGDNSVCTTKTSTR

SMILES: Cc1nc(N)ccc1CNC(=O)c1cn(Cc2ccc3ncc(Cl)cc3c2)c2ccc(=O)[nH]c12 [Example 125, N-((6-amino-2-methylpyridin-3-yl)methyl)-1-((3-chloroquinolin-6-yl)methyl)-5-oxo-4,5-dihydro-1H-pyrrolo[3,2-b]pyridine-3-carboxamide]
- IC50 (human Plasma Kallikrein [1]): < 100 nM
- EC50 (human Plasma Kallikrein [2]): < 100 nM

SMILES: Cc1cc(N)nc(C)c1CNC(=O)c1cn(Cc2cc(S(N)(=O)=O)c3ncc(Cl)cc3c2)nc1C#N [Example 60, N-((6-amino-2,4-dimethylpyridin-3-yl)methyl)-1-((3-chloro-8-sulfamoylquinolin-6-yl)methyl)-3-cyano-1H-pyrazole-4-carboxamide]
- IC50 (human Plasma Kallikrein [1]): < 100 nM

SMILES: Cc1cc(N)nc(C)c1CNC(=O)c1cn(Cc2ccc3ncc(Cl)cc3c2)c2ncnc(N)c12 [Example 34, 4-amino-7-(3-chloro-quinolin-6-ylmethyl)-7H-pyrrolo[2,3-d]pyrimidine-5-carboxylic acid (6-amino-2,4-dimethyl-pyridin-3-ylmethyl)-amide]
- IC50 (human Plasma Kallikrein [1]): < 100 nM

SMILES: Cc1cc(N)nc(C)c1CNC(=O)c1cn(Cc2ccc3ncc(Cl)cc3c2)c2ccccc12 [Example 11, N-((6-amino-2,4-dimethylpyridin-3-yl)methyl)-1-((3-chloroquinolin-6-yl)methyl)-1H-indole-3-carboxamide]
- IC50 (human Plasma Kallikrein [1]): < 100 nM

SMILES: N#Cc1nn(Cc2cc(F)c3ncc(Cl)cc3c2)cc1C(=O)NCc1ccc2[nH]cc(Cl)c2c1F [Example 57, N-((3-chloro-4-fluoro-1H-indol-5-yl)methyl)-1-((3-chloro-8-fluoroquinolin-6-yl)methyl)-3-cyano-1H-pyrazole-4-carboxamide]
- IC50 (human Plasma Kallikrein [1]): 100 to 1000 nM

SMILES: Cc1cc(N)nc(C)c1CNC(=O)c1cc(C#N)n(Cc2ccc3ncc(Cl)cc3c2)n1 [Example 108, N-((6-amino-2,4-dimethylpyridin-3-yl)methyl)-1-((3-chloroquinolin-6-yl)methyl)-5-cyano-1H-pyrazole-3-carboxamide]
- IC50 (human Plasma Kallikrein [1]): 100 to 1000 nM

SMILES: Cc1nc(N)ccc1CNC(=O)c1nnc(Cc2ccc3ncc(Cl)cc3c2)o1 [Example 79, N-((6-amino-2-methylpyridin-3-yl)methyl)-5-((3-chloroquinolin-6-yl)methyl)-1,3,4-oxadiazole-2-carboxamide]
- IC50 (human Plasma Kallikrein [1]): 100 to 1000 nM

SMILES: Cc1cc(N)nc(C)c1CNC(=O)c1nn(Cc2ccc3ncc(Cl)cc3c2)c2ccnc(C#N)c12 [Example 76, N-((6-amino-2,4-dimethylpyridin-3-yl)methyl)-1-((3-chloroquinolin-6-yl)methyl)-4-cyano-1H-pyrazolo[4,3-c]pyridine-3-carboxamide]
- IC50 (human Plasma Kallikrein [1]): < 100 nM

SMILES: Cc1cc(N)nc(C)c1CNC(=O)c1cn(Cc2ccc3ncc(Cl)cc3c2)nc1C(F)F [Example 91, N-((6-amino-2,4-dimethylpyridin-3-yl)methyl)-1-((3-chloroquinolin-6-yl)methyl)-3-(difluoromethyl)-1H-pyrazole-4-carboxamide]
- IC50 (human Plasma Kallikrein [1]): < 100 nM

SMILES: Cc1cc(N)nc(C)c1CNC(=O)c1nnc(Cc2cc(C(C)(C)O)c3ncc(Cl)cc3c2)o1 [Example 86, N-((6-amino-2,4-dimethylpyridin-3-yl)methyl)-5-((3-chloro-8-(2-hydroxypropan-2-yl)quinolin-6-yl)methyl)-1,3,4-oxadiazole-2-carboxamide]
- IC50 (human Plasma Kallikrein [1]): < 100 nM

SMILES: N#Cc1nn(Cc2cc(F)c3ncc(Cl)cc3c2)cc1C(=O)NCc1cnc2[nH]cc(Cl)c2c1 [Example 56, N-((3-chloro-1H-pyrrolo[2,3-b]pyridin-5-yl)methyl)-1-((3-chloro-8-fluoroquinolin-6-yl)methyl)-3-cyano-1H-pyrazole-4-carboxamide]
- IC50 (human Plasma Kallikrein [1]): < 100 nM

SMILES: Cc1cc(N)nc(C)c1CNC(=O)c1nn(Cc2ccc3ncc(Cl)cc3c2)c2cc[nH]c(=O)c12 [Example 120, N-((6-amino-2,4-dimethylpyridin-3-yl)methyl)-1-((3-chloroquinolin-6-yl)methyl)-4-oxo-4,5-dihydro-1H-pyrazolo[4,3-c]pyridine-3-carboxamide]
- IC50 (human Plasma Kallikrein [1]): 1000 to 10000 nM

SMILES: Cc1nc(N)ccc1CNC(=O)c1coc(Cc2ccc3ncc(Cl)cc3c2)n1 [Example 83, N-((6-amino-2-methylpyridin-3-yl)methyl)-2-((3-chloroquinolin-6-yl)methyl)oxazole-4-carboxamide]
- IC50 (human Plasma Kallikrein [1]): 100 to 1000 nM

SMILES: Cc1cc(N)nc(C)c1CNC(=O)c1c2ccccc2nn1Cc1ccc2ncc(Cl)cc2c1 [Example 14, N-((6-amino-2,4-dimethylpyridin-3-yl)methyl)-2-((3-chloroquinolin-6-yl)methyl)-2H-indazole-3-carboxamide]
- IC50 (human Plasma Kallikrein [1]): > 10000 nM

SMILES: Cc1cc(N)nc(C)c1CNC(=O)c1cn(Cc2ccc3ncc(Cl)cc3c2)nc1C(C)O (stereo not drawn) [Example 94, N-((6-amino-2,4-dimethylpyridin-3-yl)methyl)-1-((3-chloroquinolin-6-yl)methyl)-3-(1-hydroxyethyl)-1H-pyrazole-4-carboxamide]
- IC50 (human Plasma Kallikrein [1]): < 100 nM

SMILES: Cc1nc(N)ccc1CNC(=O)c1cn(Cc2ccc3ncc(Cl)cc3c2)nc1C [Example 85, N-((6-amino-2-methylpyridin-3-yl)methyl)-1-((3-chloroquinolin-6-yl)methyl)-3-methyl-1H-pyrazole-4-carboxamide]
- IC50 (human Plasma Kallikrein [1]): < 100 nM

SMILES: Cc1cc(N)nc(C)c1CNC(=O)c1cn(Cc2ccc3ncc(Cl)cc3c2)c2cc[nH]c(=O)c12 [Example 118, N-((6-amino-2,4-dimethylpyridin-3-yl)methyl)-1-((3-chloroquinolin-6-yl)methyl)-4-oxo-4,5-dihydro-1H-pyrrolo[3,2-c]pyridine-3-carboxamide]
- IC50 (human Plasma Kallikrein [1]): > 10000 nM

SMILES: Cc1cc(N)nc(C)c1CNC(=O)c1nc(C#N)n(Cc2ccc3ncc(Cl)cc3c2)n1 [Example 101, N-((6-amino-2,4-dimethylpyridin-3-yl)methyl)-1-((3-chloroquinolin-6-yl)methyl)-5-cyano-1H-1,2,4-triazole-3-carboxamide]
- IC50 (human Plasma Kallikrein [1]): > 10000 nM

SMILES: Cc1nc(N)ccc1CNC(=O)c1cnc(Cc2ccc3ncc(Cl)cc3c2)o1 [Example 90, N-((6-amino-2-methylpyridin-3-yl)methyl)-2-((3-chloroquinolin-6-yl)methyl)oxazole-5-carboxamide]
- IC50 (human Plasma Kallikrein [1]): < 100 nM

SMILES: Cc1cc(N)nc(C)c1CNC(=O)c1cn(Cc2ccc3ncc(Cl)cc3c2)c(C#N)n1 [Example 113, N-((6-amino-2,4-dimethylpyridin-3-yl)methyl)-1-((3-chloroquinolin-6-yl)methyl)-2-cyano-1H-imidazole-4-carboxamide]
- IC50 (human Plasma Kallikrein [1]): 100 to 1000 nM

SMILES: Cc1cc(N)nc(C)c1CNC(=O)c1cn(Cc2ccc3ncc(Cl)cc3c2)c2ccnc(C#N)c12 [Example 133, N-((6-amino-2,4-dimethylpyridin-3-yl)methyl)-1-((3-chloroquinolin-6-yl)methyl)-4-cyano-1H-pyrrolo[3,2-c]pyridine-3-carboxamide]
- IC50 (human Plasma Kallikrein [1]): < 100 nM

SMILES: Cc1cc(N)nc(C)c1CNC(=O)c1cn(Cc2cc(S(C)(=O)=O)c3ncc(Cl)cc3c2)nc1C#N [Example 68, N-((6-amino-2,4-dimethylpyridin-3-yl)methyl)-1-((3-chloro-8-(methylsulfonyl)quinolin-6-yl)methyl)-3-cyano-1H-pyrazole-4-carboxamide]
- IC50 (human Plasma Kallikrein [1]): < 100 nM

SMILES: Cc1cc(N)nc(C)c1CNC(=O)c1[nH]c(Cc2ccc3ncc(Cl)cc3c2)nc1Br [Example 106, N-((6-amino-2,4-dimethylpyridin-3-yl)methyl)-4-bromo-2-((3-chloroquinolin-6-yl)methyl)-1H-imidazole-5-carboxamide]
- IC50 (human Plasma Kallikrein [1]): < 100 nM
